# Assay results: PMC12287522 (Scientific Reports, 2025)
# Key:
# [1] = test system: human colorectal cancer cell line (HCT116); assay: MTT assay, HCT116 cell line; assay type: cell-based; settings: for IC50: Homo sapiens, HCT-116, read-out: Anticancer activity (IC50) HCT116; for anticancer action against HCT116 (in words): SAR discussion
# [2] = test system: human lung adenocarcinoma cell line (A549); assay: MTT assay, A549 cell line; assay type: cell-based; settings: SAR discussion
Structure (SMILES),IC50 [1] [µM],anticancer action against HCT116 (in words) [1],inhibitory potential against A549 (in words) [2]
"COc1cccc(NC(=O)Cn2cc(COc3ncnc4[nH]cnc34)nn2)c1 [5 g, 2-(4-(((9 H-purin-6-yl)oxy)methyl)-1 H-1,2,3-triazol-1-yl)-N-(3-methoxyphenyl)acetamide]",> 100,did not exhibit anticancer action,
"O=C(Cn1cc(COc2ncnc3[nH]cnc23)nn1)Nc1ccc(O)cc1 [5 h, 2-(4-(((9 H-purin-6-yl)oxy)methyl)-1 H-1,2,3-triazol-1-yl)-N-(4-hydroxyphenyl)acetamide]",12.3 ± 0.52,moderately inhibited,
"Cc1cncc(NC(=O)Cn2cc(COc3ncnc4[nH]cnc34)nn2)c1 [5a, 2-(4-(((9 H-purin-6-yl)oxy)methyl)-1 H-1,2,3-triazol-1-yl)-N-(5-methylpyridin-3-yl)acetamide]",6.23 ± 0.23,,
"O=Cc1cccc(NC(=O)Cn2cc(COc3ncnc4[nH]cnc34)nn2)c1 [5b, 2-(4-(((9 H-purin-6-yl)oxy)methyl)-1 H-1,2,3-triazol-1-yl)-N-(3-formylphenyl)acetamide]",15.6 ± 0.45,,
"Cc1cccc(NC(=O)Cn2cc(COc3ncnc4[nH]cnc34)nn2)c1 [5c, 2-(4-(((9 H-purin-6-yl)oxy)methyl)-1 H-1,2,3-triazol-1-yl)-N-(m-tolyl)acetamide]",,,significantly reduced
"Cc1ccc(NC(=O)Cn2cc(COc3ncnc4[nH]cnc34)nn2)c(C)c1 [5d, 2-(4-(((9 H-purin-6-yl)oxy)methyl)-1 H-1,2,3-triazol-1-yl)-N-(2,4-dimethylphenyl)acetamide]",,did not exhibit anticancer action,
"O=C(Cn1cc(COc2ncnc3[nH]cnc23)nn1)Nc1ccc(F)c(Cl)c1 [5e, 2-(4-(((9 H-purin-6-yl)oxy)methyl)-1 H-1,2,3-triazol-1-yl)-N-(3-chloro-4-fluorophenyl)acetamide]",6.11 ± 0.29,,
"O=C(Cn1cc(COc2ncnc3[nH]cnc23)nn1)Nc1ccc([N+](=O)[O-])cc1 [5f, 2-(4-(((9 H-purin-6-yl)oxy)methyl)-1 H-1,2,3-triazol-1-yl)-N-(4-nitrophenyl)acetamide]",13.9 ± 0.19,,significantly reduced
"O=C(Cn1cc(COc2ncnc3[nH]cnc23)nn1)NCc1ccc(O)cc1 [5i, 2-(4-(((9 H-purin-6-yl)oxy)methyl)-1 H-1,2,3-triazol-1-yl)-N-(4-hydroxybenzyl)acetamide]",7.88 ± 0.6,moderately inhibited,significantly reduced
"O=C(Cn1cc(COc2ncnc3[nH]cnc23)nn1)NCc1ccc(Cl)cc1 [5j, 2-(4-(((9 H-purin-6-yl)oxy)methyl)-1 H-1,2,3-triazol-1-yl)-N-(4-chlorobenzyl)acetamide]",22.6 ± 0.38,,
"COc1ccc(CNC(=O)Cn2cc(COc3ncnc4[nH]cnc34)nn2)cc1 [5k, 2-(4-(((9 H-purin-6-yl)oxy)methyl)-1 H-1,2,3-triazol-1-yl)-N-(4-methoxybenzyl)acetamide]",,did not exhibit anticancer action,
"COc1cccc2c1C(=O)c1c(O)c3c(c(O)c1C2=O)C[C@@](O)(C(=O)CO)C[C@@H]3O[C@H]1C[C@H](N)[C@H](O)[C@H](C)O1 [DXN, doxorubicin, reference compound]",7.27 ± 0.39,,
